Measurements: US8044079B2, “Substituted oxindole derivatives, medicaments containing said derivatives and use thereof” (Abbott GmbH & Co. KG, priority 2005, dated 2011)

What follows are compounds tested against T1, human vasopressin V1b receptor (Homo sapiens, UniProt P47901) (assay: Vasopressin V1b receptor binding test). Conditions: membranes of CHO-K1 cells with human V1b receptor, displacement of 1.5 nM 3H-AVP; for compounds with more than one stereogenic center the diastereomer with greater affinity.
T1 construct: expressed in transfected cells; host or cells: CHO-K1 (cell line hV1b_3H2_CHO), membrane preparation
T1 sequence (P47901 1-424): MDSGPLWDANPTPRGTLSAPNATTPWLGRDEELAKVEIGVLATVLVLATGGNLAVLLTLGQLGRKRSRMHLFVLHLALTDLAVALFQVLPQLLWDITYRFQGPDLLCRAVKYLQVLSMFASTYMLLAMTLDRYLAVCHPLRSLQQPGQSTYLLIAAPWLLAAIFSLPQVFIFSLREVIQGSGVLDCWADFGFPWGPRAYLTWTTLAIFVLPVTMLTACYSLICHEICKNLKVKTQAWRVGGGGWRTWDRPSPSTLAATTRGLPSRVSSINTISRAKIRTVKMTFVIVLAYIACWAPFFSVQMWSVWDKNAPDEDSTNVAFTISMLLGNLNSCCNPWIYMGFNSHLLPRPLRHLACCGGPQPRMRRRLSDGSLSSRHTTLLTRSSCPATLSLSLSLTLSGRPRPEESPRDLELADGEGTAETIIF
Outline: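 Radioligand displacement on membranes carrying human V1b receptor in 50 mM tris, 10 mM MgCl2, 0.1% BSA, pH 7.4, 2% DMSO final; 60 min at room temperature, nonspecific binding with 1 μM AVP. Free ligand removed by filtration, bound counted by liquid scintillation, Ki from nonlinear regression of triplicates.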
In the case of `CCNCc1ccc(OC)c(C2(N3CCC[C@H]3c3ncon3)C(=O)N(S(=O)(=O)c3ccc(OC)cc3)c3ccc(Cl)cc32)c1` (stereo partly drawn) [Example 216, 5-Chloro-3-(5-ethylaminomethyl-2-methoxyphenyl)-1-(4-methoxybenzenesulfonyl)-3-((S)-2-[1,2,4]oxadiazol-3-yl-pyrrolidin-1-yl)-1,3-dihydroindol-2-one], the Ki is reported as < 10 nM.
For `CNCc1ccc(C2(N3C[C@H](O)C[C@H]3c3ncco3)C(=O)N(S(=O)(=O)c3ccc(OC)cc3)c3ccc(Cl)cc32)c(OC)c1` (stereo partly drawn) [Example 217, 5-Chloro-3-((2S,4R)-4-hydroxy-2-oxazol-2-yl-pyrrolidin-1-yl)-1-(4-methoxybenzenesulfonyl)-3-(2-methoxy-4-methylaminomethylphenyl)-1,3-dihydroindol-2-one], the Ki was < 10 nM.
`COc1ccc(S(=O)(=O)N2C(=O)C(c3cc(CN(C)C)ccc3OC)(N3C[C@H](OC(C)(C)C)C[C@H]3c3ncco3)c3cc(Cl)ccc32)cc1` (stereo partly drawn) [Example 218, 3-((2S,4R)-4-tert-butoxy-2-oxazol-2-yl-pyrrolidin-1-yl)-5-chloro-3-(5-dimethylaminomethyl-2-methoxyphenyl)-1-(4-methoxybenzenesulfonyl)-1,3-dihydroindol-2-one] gave a Ki of 10 to 100 nM.
With `CCNCc1ccc(OC)c(C2(N3C[C@H](OC(C)(C)C)C[C@H]3c3ncco3)C(=O)N(S(=O)(=O)c3ccc(OC)cc3)c3ccc(Cl)cc32)c1` (stereo partly drawn) [Example 219, 3-((2S,4R)-4-tert-butoxy-2-oxazol-2-yl-pyrrolidin-1-yl)-5-chloro-3-(5-ethylaminomethyl-2-methoxyphenyl)-1-(4-methoxybenzenesulfonyl)-1,3-dihydroindol-2-one] the Ki was < 10 nM.
`COc1ccc(S(=O)(=O)N2C(=O)C(c3cc(CN4CCOCC4)ccc3OC)(N3C[C@H](O)C[C@H]3c3ncco3)c3cc(C#N)ccc32)cc1` (stereo partly drawn) [Example 220, 5-Cyano-3-((2S,4R)-4-hydroxy-2-oxazol-2-yl-pyrrolidin-1-yl)-1-(4-methoxybenzenesulfonyl)-3-(2-methoxy-5-morpholin-4-ylmethylphenyl)-1,3-dihydroindol-2-one] showed a Ki of 10 to 100 nM.
`CCN1CCN(Cc2ccc(OC)c(C3(N4C[C@H](O)C[C@H]4c4ncco4)C(=O)N(S(=O)(=O)c4ccc(OC)cc4)c4ccc(C#N)cc43)c2)CC1` (stereo partly drawn) [Example 221, 5-Cyano-3-[5-(4-ethylpiperazin-1-ylmethyl)-2-methoxyphenyl]-3-((2S,4R)-4-hydroxy-2-oxazol-2-yl-pyrrolidin-1-yl)-1-(4-methoxybenzenesulfonyl)-2,3-dihydro-1H-indol-2-one] was tested, and the Ki was < 10 nM.
`COc1ccc(S(=O)(=O)N2C(=O)C(c3cc(CN4CCN(CCO)CC4)ccc3OC)(N3C[C@H](O)C[C@H]3c3ncco3)c3cc(C#N)ccc32)cc1` (stereo partly drawn) [Example 222, 5-Cyano-3-{5-[4-(2-hydroxyethyl)piperazin-1-ylmethyl]-2-methoxyphenyl}-3-((2S,4R)-4-hydroxy-2-oxazol-2-yl-pyrrolidin-1-yl)-1-(4-methoxybenzenesulfonyl)-2,3-dihydro-1H-indol-2-one] was tested, and the Ki was 10 to 100 nM.
With `COc1ccc(S(=O)(=O)N2C(=O)C(c3cc(CN(C)C)ccc3OC)(N3C[C@H](OC)C[C@H]3c3ncco3)c3cc(Cl)ccc32)cc1` (stereo partly drawn) [Example 223, 5-Chloro-3-(5-dimethylaminomethyl-2-methoxyphenyl)-1-(4-methoxybenzenesulfonyl)-3-((2S,4R)-4-methoxy-2-oxazol-2-yl-pyrrolidin-1-yl)-1,3-dihydroindol-2-one] the Ki was < 10 nM.
`COc1ccc(S(=O)(=O)N2C(=O)C(c3cc(CN4CCN(C)CC4)ccc3OC)(N3C[C@H](OC)C[C@H]3c3ncco3)c3cc(Cl)ccc32)cc1` (stereo partly drawn) [Example 224, 5-Chloro-1-(4-methoxybenzenesulfonyl)-3-[2-methoxy-5-(4-methylpiperazin-1-ylmethyl)phenyl]-3-((2S,4R)-4-methoxy-2-oxazol-2-yl-pyrrolidin-1-yl)-1,3-dihydroindol-2-one] was tested, and the Ki was < 10 nM.
Compound `COc1ccc(S(=O)(=O)N2C(=O)C(c3cc(CN4CCN(C)CC4)ccc3OC)(N3CCC[C@@]3(C)c3ncco3)c3cc(Cl)ccc32)cc1` (stereo partly drawn) [Example 225, 5-Chloro-1-(4-methoxybenzenesulfonyl)-3-[2-methoxy-5-(4-methylpiperazin-1-ylmethyl)phenyl]-3-((S)-2-methyl-2-oxazol-2-yl-pyrrolidin-1-yl)-1,3-dihydroindol-2-one] has a Ki of 10 to 100 nM.
With `COc1ccc(S(=O)(=O)N2C(=O)C(c3cc(CN4CCN(CCO)CC4)ccc3OC)(N3CCC[C@@]3(C)c3ncco3)c3cc(Cl)ccc32)cc1` (stereo partly drawn) [Example 226, 5-Chloro-3-{5-[4-(2-hydroxyethyl)piperazin-1-ylmethyl]-2-methoxyphenyl}-1-(4-methoxybenzenesulfonyl)-3-((S)-2-methyl-2-oxazol-2-yl-pyrrolidin-1-yl)-1,3-dihydroindol-2-one] the Ki was < 10 nM.
`CNCc1ccc(OC)c(C2(N3CCC[C@@]3(C)c3ncco3)C(=O)N(S(=O)(=O)c3ccc(OC)cc3)c3ccc(Cl)cc32)c1` (stereo partly drawn) [Example 227, 5-Chloro-1-(4-methoxybenzenesulfonyl)-3-(2-methoxy-5-methylaminomethylphenyl)-3-((S)-2-methyl-2-oxazol-2-yl-pyrrolidin-1-yl)-1,3-dihydroindol-2-one] was tested, and the Ki was < 10 nM.
Work on `COc1ccc(S(=O)(=O)N2C(=O)C(c3cc(CN4CCN(C)CC4)ccc3OC)(N3C[C@H](F)C[C@H]3c3ncco3)c3cc(C#N)ccc32)cc1` (stereo partly drawn) [Example 228, 5-Cyano-3-((2S,4R)-4-fluoro-2-oxazol-2-yl-pyrrolidin-1-yl)-1-(4-methoxybenzenesulfonyl)-3-[2-methoxy-5-(4-methylpiperazin-1-ylmethyl)phenyl]-1,3-dihydroindol-2-one] yielded a Ki of 10 to 100 nM.
Work on `COc1ccc(S(=O)(=O)N2C(=O)C(c3cc(CN4CCN(CCO)CC4)ccc3OC)(N3C[C@H](F)C[C@H]3c3ncco3)c3cc(C#N)ccc32)cc1` (stereo partly drawn) [Example 229, 5-Cyano-3-((2S,4R)-4-fluoro-2-oxazol-2-yl-pyrrolidin-1-yl)-3-{5-[4-(2-hydroxyethyl)piperazin-1-ylmethyl]-2-methoxyphenyl}-1-(4-methoxybenzenesulfonyl)-1,3-dihydroindol-2-one] yielded a Ki of 10 to 100 nM.
With `COc1ccc(S(=O)(=O)N2C(=O)C(c3cc(CN(C)C)ccc3OC)(N3C[C@H](F)C[C@H]3c3ncco3)c3cc(C#N)ccc32)cc1` (stereo partly drawn) [Example 230, 5-Cyano-3-(5-dimethylaminomethyl-2-methoxyphenyl)-3-((2S,4R)-4-fluoro-2-oxazol-2-yl-pyrrolidin-1-yl)-1-(4-methoxybenzenesulfonyl)-1,3-dihydroindol-2-one] the Ki was 10 to 100 nM.
For `CCNCc1ccc(OC)c(C2(N3CCC[C@@]3(C)c3ncco3)C(=O)N(S(=O)(=O)c3ccc(OC)cc3)c3ccc(Cl)cc32)c1` (stereo partly drawn) [Example 231, 5-Chloro-3-(5-ethylaminomethyl-2-methoxyphenyl)-1-(4-methoxybenzenesulfonyl)-3-((S)-2-methyl-2-oxazol-2-yl-pyrrolidin-1-yl)-1,3-dihydroindol-2-one], the Ki was < 10 nM.
For `CCN1CCN(Cc2ccc(OC)c(C3(N4CCC[C@@]4(C)c4ncco4)C(=O)N(S(=O)(=O)c4ccc(OC)cc4)c4ccc(Cl)cc43)c2)CC1` (stereo partly drawn) [Example 232, 5-Chloro-3-[5-(4-ethylpiperazin-1-ylmethyl)-2-methoxyphenyl]-1-(4-methoxybenzenesulfonyl)-3-((S)-2-methyl-2-oxazol-2-yl-pyrrolidin-1-yl)-1,3-dihydroindol-2-one], the Ki was < 10 nM.
